Key:
human MER (528-end) = human MER (528-end) (Homo sapiens (Human), UniProt Q12866); assay: HTRF Kinase Activity Biochemical Assay (KinEASE-TK); settings: 10 uM ATP
Summary of the method: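 Recombinant human MER (528-end) phosphorylated biotin-TK peptide substrate, 1 h at room temperature. Reaction stopped with detection buffer containing 0.375 nM Eu3+-cryptate anti-TK antibody and 0.062 uM streptavidin-XL665, 1 h further. Activity taken as HTRF ratio 665/620 nm ×10,000, 340 nm excitation.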

[1] = target: CD8-MerTK (Ba/F3-CDM cells) (Homo sapiens, UniProt Q12866); assay: In Cell MER Kinase Assay Using BaF3 Cellular System; assay type: cell-based; settings: Ba/F3-CDM proliferation without IL-3, 48 hours, Celltiter-Glo
From the text: CD8-MerTK is a chimeric fusion protein consisting of the extracellular and transmembrane domains of the human CD8α (amino acids 1 to 209) at its N-terminus and the kinase domain and intracellular parts of MerTK (amino acids 521-994) at its C-terminus. To establish an in cell kinase assay for MerTK kinase, the IL-3 dependent Ba/F3 cells of murine lymphoid origin was transfected with CD8-MerTK. The resulting Ba/F3-CDM line was then validated that Ba/F3-CDM cell proliferation is completely dependent on the activity of MerTK kinase activity when growing in the absence of IL-3. For a routine cellular assay, Ba/F3-CDM cells were seeded at 2,000 cells per well in 384-well cell culture plate containing DMEM/10% FBS culture media and incubated for 24 hours before addition of compounds pre-diluted in culture media. Following compound treatment, cells were further incubated for 48 hours and the proliferation was measured. To discriminate a Ba/F3 growth inhibition by a specific inhibition of MerTK kinase following compound treatment vs growth inhibition due to a non-specific unintended cytotoxicity of compounds, we routinely carried out control sets of Ba/F3 cells in parallel that grown in IL3-supplemented growth media. In the presence of IL-3, the proliferation of Ba/F3 is no longer dependent on the MerTK activity. Cell growth and proliferation was measured with Celltiter-Glo™ system (Promega, USA) according to the manufacturer's instruction. The half-maximal growth inhibitory concentration (GI50) value was calculated with Prism6.0 software (GraphPad, USA).

[2] = target: human c-MER catalytic domain (Homo sapiens (Human), UniProt Q12866); assay: TR-FRET Kinase Activity Biochemical Assay (LanthaScreen); settings: 10 uM ATP, 1 hour, kinase not given
Summary of the method: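 Recombinant human c-MER catalytic domain phosphorylated fluorescein-labeled poly-GT substrate. The reaction was stopped with 10 mM EDTA, then 2 nM Tb-labeled anti-phosphotyrosine antibody was added for 30 min. Kinase activity was taken from the 495/520 nm TR-FRET emission ratio after 340 nm excitation.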

[3] = target: BCR fusion to kinase domain of MerTK (Ba/F3-MerTK) (Homo sapiens, UniProt Q12866); assay: In Cell TAM Kinase Assay Using BaF3 Cellular System; assay type: cell-based, murine; settings: Ba/F3 BCR-kinase fusion proliferation, 72 hours, Cell Titer Glo; kinase not given; read-out: IC50
Summary of the method: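 Ba/F3 murine pro-B cells expressing BCR–MerTK kinase-domain fusion (IL-3 independent), seeded at 1,000 cells/well onto compound and grown 72 h. Viability read by CellTiter-Glo 2.0 luminescence after 30 min at room temperature.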

Chain of human MER (528-end) (Q12866 528-999 limits assumed): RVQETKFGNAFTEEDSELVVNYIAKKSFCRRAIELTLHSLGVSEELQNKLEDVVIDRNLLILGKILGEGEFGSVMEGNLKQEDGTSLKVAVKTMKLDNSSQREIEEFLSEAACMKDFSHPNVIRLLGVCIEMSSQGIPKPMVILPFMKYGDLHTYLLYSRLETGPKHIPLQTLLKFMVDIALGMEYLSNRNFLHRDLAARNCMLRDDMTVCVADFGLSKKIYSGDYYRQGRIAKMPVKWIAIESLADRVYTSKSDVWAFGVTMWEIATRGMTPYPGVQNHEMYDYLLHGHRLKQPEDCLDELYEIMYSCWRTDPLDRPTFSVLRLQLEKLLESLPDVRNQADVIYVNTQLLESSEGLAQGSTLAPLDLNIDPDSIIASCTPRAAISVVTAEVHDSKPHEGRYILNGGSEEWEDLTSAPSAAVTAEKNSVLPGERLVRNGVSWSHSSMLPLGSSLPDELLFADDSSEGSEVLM
Chain of human c-MER catalytic domain (Q12866 587-858): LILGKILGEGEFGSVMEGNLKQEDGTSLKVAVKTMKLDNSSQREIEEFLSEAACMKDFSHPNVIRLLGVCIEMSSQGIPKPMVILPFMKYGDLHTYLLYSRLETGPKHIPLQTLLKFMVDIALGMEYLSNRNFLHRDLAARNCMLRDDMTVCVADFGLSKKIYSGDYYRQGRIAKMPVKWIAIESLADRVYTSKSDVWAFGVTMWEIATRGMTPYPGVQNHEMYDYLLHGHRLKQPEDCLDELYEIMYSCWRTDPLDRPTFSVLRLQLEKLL
Chain of CD8-MerTK (Ba/F3-CDM cells) (Q12866 21-999 limits assumed, stated change not applied): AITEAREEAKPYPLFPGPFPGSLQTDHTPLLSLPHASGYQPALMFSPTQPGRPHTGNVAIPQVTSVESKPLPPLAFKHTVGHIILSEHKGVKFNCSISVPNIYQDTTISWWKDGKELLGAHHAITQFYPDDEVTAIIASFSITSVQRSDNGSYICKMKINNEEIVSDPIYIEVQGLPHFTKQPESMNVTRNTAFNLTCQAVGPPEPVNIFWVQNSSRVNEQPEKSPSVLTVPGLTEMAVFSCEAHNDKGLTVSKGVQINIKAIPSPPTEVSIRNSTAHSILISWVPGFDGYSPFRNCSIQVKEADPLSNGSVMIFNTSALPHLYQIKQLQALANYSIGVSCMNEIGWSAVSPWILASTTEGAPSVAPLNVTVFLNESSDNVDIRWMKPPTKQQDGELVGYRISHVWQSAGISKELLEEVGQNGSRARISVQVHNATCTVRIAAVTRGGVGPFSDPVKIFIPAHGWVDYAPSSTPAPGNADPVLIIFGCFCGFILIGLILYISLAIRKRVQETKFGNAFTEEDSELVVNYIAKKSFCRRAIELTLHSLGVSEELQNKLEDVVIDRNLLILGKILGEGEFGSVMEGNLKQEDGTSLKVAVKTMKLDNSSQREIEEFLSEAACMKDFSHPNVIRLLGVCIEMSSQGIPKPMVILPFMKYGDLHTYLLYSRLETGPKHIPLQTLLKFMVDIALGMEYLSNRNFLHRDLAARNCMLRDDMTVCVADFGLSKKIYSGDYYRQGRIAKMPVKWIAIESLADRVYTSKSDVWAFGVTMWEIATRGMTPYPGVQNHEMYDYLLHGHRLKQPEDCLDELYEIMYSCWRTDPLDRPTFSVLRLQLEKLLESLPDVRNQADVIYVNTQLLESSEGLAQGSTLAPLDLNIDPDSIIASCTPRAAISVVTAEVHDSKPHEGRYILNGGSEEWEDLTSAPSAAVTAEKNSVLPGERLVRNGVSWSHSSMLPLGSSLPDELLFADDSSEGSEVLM
Chain of BCR fusion to kinase domain of MerTK (Ba/F3-MerTK) (Q12866 21-999 limits assumed, change not shown): as the sequence (Q12866 21-999 limits assumed, stated change not applied) above

| Compound | IC50 (human MER (528-end)) | IC50 [1] | IC50 [2] | IC50 [3] |
| --- | --- | --- | --- | --- |
| Nc1ncc(-c2ccc(N3CCOCC3)nc2)cc1C(=O)N[C@@H]1CCN(C(=O)c2ccc(-c3ccccc3)cc2)C1 [Example 559] | 10 to 100 nM | 100 to 500 nM | – | – |
| (R)-2-amino-N-(1 chlorophenyl)carbamoyl)pyrrolidin-3-yl)-5-(1-(1-methylpiperidin-4-yl)-1H-pyrazol-4-yl)nicotinamide [Example 11] | – | > 1000 nM | 10 to 100 nM | – |
| Nc1ncc(-c2ccccc2C(=O)O)cc1C(=O)N[C@@H]1CCN(C(=O)c2ccc(-c3ccc(F)cc3Cl)cc2)C1 [Example 777, (R)-2-(6-amino-5-((1-(2′-chloro-4′-fluoro-[1,1′-biphenyl]-4-carbonyl)pyrrolidin-3-yl)carbarnoyl)pyridin-3-yl)benzoic acid] | > 1000 nM | > 1000 nM | – | – |
| (R)-2-amino-N-(1-(2-chloro-[1,1′-biphenyl]-4-carbonyl)pyrrolidin-3-yl)-5-(1-methyl-1H-pyrazol-4-yl)nicotinamide [Example 394] | 100 to 1000 nM | > 1000 nM | – | – |
| Cn1cc(-c2cnc(N)c(C(=O)N[C@@H]3CCN(C(=O)Oc4ccc5cc(OCC6CCNCC6)ccc5c4)C3)c2)cn1 [Example 303] | – | 500 to 1000 nM | 10 to 100 nM | – |
| (R)-2-amino-N-(1-(2′-chloro-[1,1′-biphenyl]-4-carbonyl)pyrrolidin-3-yl)-5-(4-(4-methylpiperazin-1-yl)phenyl)nicotinamide [Example 570] | – | 100 to 500 nM | < 10 nM | – |
| Cc1cc(C(=O)N2CC[C@@H](NC(=O)c3cc(-c4cnn(C)c4)cnc3N)C2)ccc1-c1ccc(CN2CCN(C)CC2)cc1 [Example 392, (R)-2-amino-5-(1-methyl-1H-pyrazol-4-yl)-N-(1-(2-methyl-4^1-((4-methylpiperazin-1-yl)methyl)-[1,1′-biphenyl]-4-carbonyl)pyrrolidin-3-yl)nicotinamide] | 100 to 1000 nM | > 1000 nM | – | – |
| Cn1cc(-c2cnc(N)c(C(=O)N[C@@H]3CCN(C(=O)c4ccc(-c5ccc(OCC6CCNCC6)cc5)cc4)C3)c2)cn1 [Example 550] | – | > 1000 nM | 10 to 100 nM | – |
| (R)-2-amino-N-(1-((4′-(dimethylamino)-[1,1′-biphenyl]-3-yl)carbamoyl)pyrrolidin-3-yl)-5-(1-methyl-1H-pyrazol-4-yl)nicotinamide [Example 263] | – | > 1000 nM | 10 to 100 nM | – |
| Cn1cc(-c2cnc(N)c(C(=O)N[C@@H]3CCN(C(=O)Oc4cccc(OCC5CCC(N)CC5)c4)C3)c2)cn1 (stereo partly drawn) [Example 305, 3-(((1R,4R)-4-aminocyclohexyl)methoxy)phenyl (R)-3-(2-amino-5-(1-methyl-1H-pyrazol-4-yl)nicotinamido)pyrrolidine-1-carboxylate] | – | > 1000 nM | 100 to 1000 nM | – |
| Cc1cc(-c2ccc(CN3CCN(C)CC3)cc2)ccc1C(=O)N1CC[C@@H](NC(=O)c2cc(-c3cnn(C)c3)cnc2N)C1 [Example 391, (R)-2-amino-5-(1-methyl-1H-pyrazol-4-yl)-N-(1-(3-methyl-4^1-((4-methylpiperazin-1-yl)methyl)-[1,1′-biphenyl]-4-carbonyl)pyrrolidin-3-yl)nicotinamide] | > 1000 nM | > 1000 nM | – | – |
| Cn1cc(-c2cnc(N)c(C(=O)N[C@@H]3CCN(C(=O)c4ccc(-c5ccc(Oc6ccc(O)cc6)c(Cl)c5)cc4)C3)c2)cn1 [Example 808, (R)-2-amino-N-(1-(3′-chloro-4′-(4-hydroxyphenoxy)-[1,1′-biphenyl]-4-carbonyl)pyrrolidin-3-yl)-5-(1-methyl-1H-pyrazol-4-yl)nicotinamide] | 10 to 100 nM | – | – | 100 to 500 nM |
| Nc1cncc(-c2cnc(N)c(C(=O)N[C@@H]3CCN(C(=O)c4ccc(-c5ccc(F)cc5Cl)cc4)C3)c2)c1 [Example 583, (R)-5′,6-diamino-N-(1-(2′-chloro-4′-fluoro-[1,1′-biphenyl]-4-carbonyl)pyrrolidin-3-yl)-[3,3′-bipyridine]-1-5-carboxamide] | – | > 1000 nM | < 10 nM | – |
| CN(C)Cc1ccc(Oc2ccc(-c3ccc(C(=O)N4CC[C@@H](NC(=O)c5cc(-c6cnn(C)c6)cnc5N)C4)cc3)cc2)cc1 [Example 636, (R)-2-amino-N-(1-(4′-(4-((dimethylamino)methyl)phenoxy)-[1,1′-biphenyl]-4-carbonyl)pyrrolidin-3-yl)-5-(1-methyl-1H-pyrazol-4-yl)nicotinamide] | 10 to 100 nM | – | – | 100 to 500 nM |
| Cn1cc(-c2cnc(N)c(C(=O)N[C@@H]3CCN(C(=O)c4ccc(OCc5cccc([N+](=O)[O-])c5)cc4)C3)c2)cn1 [Example 770, (R)-2-amino-5-(1-methyl-1H-pyrazol-4-yl)-N-(1-(4-((3-nitrobenzyl)oxy)benzoyl)pyrrolidin-3-yl)nicotinamide] | 100 to 1000 nM | – | – | > 1000 nM |
| Cn1cc(-c2cnc(N)c(C(=O)N[C@@H]3CCN(C(=O)c4ccc5cc(O)ccc5c4)C3)c2)cn1 [Example 706, (R)-2-amino-N-(1-(6-hydroxy-2-naphthoyl)pyrrolidin-3-yl)-5-(1-methyl-1H-pyrazol-4-yl)nicotinamide] | 100 to 1000 nM | – | – | > 1000 nM |
| CN(C)C(=O)c1ccc(Oc2ccc(-c3ccc(C(=O)N4CC[C@@H](NC(=O)c5cc(-c6cnn(C)c6)cnc5N)C4)cc3)cc2)cc1 [Example 787, (R)-2-amino-N-(1-(4′-(4-(dimethylcarbamoyl)phenoxy)-[1,1′-biphenyl]-4-carbonyl)pyrrolidin-3-yl)-5-(1-methyl-1H-pyrazol-4-yl)nicotinamide] | 10 to 100 nM | – | – | > 1000 nM |
